In the supplement of paper PMC10307832:

Assays:
Experiment in all cases: relative viability (nuclei count vs DMSO), 5 days (fraction); higher = more cells survive
[1] = compound: C1CCC(CC1)N(CCNCCC2=C3C(=C(C=C2)O)NC(=O)CO3)C(=O)CCNCCC4=CC(=C(C=C4)Cl)Cl [AZ505] + CS(=O)(=O)CCNCc1ccc(-c2ccc3ncnc(Nc4ccc(OCc5cccc(F)c5)c(Cl)c4)c3c2)o1 [Lapatinib] (partner 2 µM)
Summary of the method: (§1)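 Lung cancer cell lines were pin-tool dosed in 1536-well plates on the day after seeding, with either a lone drug or a fixed anchor-drug dose plus five library-drug doses (not always all listed) in √10 steps. Nuclei were counted on 4× images after 5 days. Relative viability is the ratio of treated-well to vehicle-well nuclei counts, with each value a median of duplicate plates.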

[2] = compound: C1CCC(CC1)N(CCNCCC2=C3C(=C(C=C2)O)NC(=O)CO3)C(=O)CCNCCC4=CC(=C(C=C4)Cl)Cl [AZ505] + CS(=O)(=O)N1CCN(Cc2cc3nc(-c4cccc5[nH]ncc45)nc(N4CCOCC4)c3s2)CC1 [Pictilisib] (partner 1 µM)
Summary of the method: as §1

[3] = compound: Cn1c(=O)n(-c2ccc(C(C)(C)C#N)cc2)c2c3cc(-c4cnc5ccccc5c4)ccc3ncc21 [Dactolisib] + CS(=O)(=O)CCNCc1ccc(-c2ccc3ncnc(Nc4ccc(OCc5cccc(F)c5)c(Cl)c4)c3c2)o1 [Lapatinib] (partner 2 µM)
Summary of the method: as §1

[4] = compound: Cn1c(=O)n(-c2ccc(C(C)(C)C#N)cc2)c2c3cc(-c4cnc5ccccc5c4)ccc3ncc21 [Dactolisib] + Cc1nc(NC(=O)N2CCC[C@H]2C(N)=O)sc1-c1ccnc(C(C)(C)C(F)(F)F)c1 [Alpelisib] (partner 2 µM)
Summary of the method: as §1

| Cell Line | relative viability ([1]; first compound 0.08 µM) | relative viability ([1]; first compound 0.253 µM) | relative viability ([1]; first compound 0.8 µM) | relative viability ([1]; first compound 2.53 µM) | relative viability ([1]; first compound 8 µM) | relative viability ([2]; first compound 0.08 µM) | relative viability ([2]; first compound 0.253 µM) | relative viability ([2]; first compound 0.8 µM) | relative viability ([2]; first compound 2.53 µM) | relative viability ([2]; first compound 8 µM) | relative viability ([3]; first compound 0.002 µM) | relative viability ([3]; first compound 0.006325 µM) | relative viability ([3]; first compound 0.02 µM) | relative viability ([3]; first compound 0.06325 µM) | relative viability ([3]; first compound 0.2 µM) | relative viability ([4]; first compound 0.002 µM) | relative viability ([4]; first compound 0.006325 µM) | relative viability ([4]; first compound 0.02 µM) | relative viability ([4]; first compound 0.06325 µM) | relative viability ([4]; first compound 0.2 µM) |
| --- | --- | --- | --- | --- | --- | --- | --- | --- | --- | --- | --- | --- | --- | --- | --- | --- | --- | --- | --- | --- |
| HCC-44 | 0.926 | 1.09 | 0.974 | 1.11 | 1.06 | 0.635 | 0.716 | 0.479 | 0.669 | 0.601 | 1.09 | 1 | 1 | 0.68 | 0.547 | 0.907 | 0.722 | 0.601 | 0.337 | 0.3 |
| HCC-827 | 0.218 | 0.191 | 0.171 | 0.199 | 0.191 | 0.944 | 0.963 | 1.1 | 0.999 | 0.953 | 0.209 | 0.206 | 0.201 | 0.172 | 0.196 | 0.964 | 1.01 | 0.943 | 0.468 | 0.359 |
| NCI-H2347 | 0.555 | 0.64 | 0.607 | 0.508 | 0.772 | 0.551 | 0.581 | 0.537 | 0.455 | 0.541 | 1.16 | 0.943 | 0.843 | 0.906 | 0.813 | 1.2 | 1.09 | 0.927 | 0.689 | 0.399 |
| PC-14 | 0.316 | 0.296 | 0.336 | 0.411 | 0.319 | 0.449 | 0.754 | 0.658 | 0.643 | 0.703 | 0.33 | 0.347 | 0.318 | 0.186 | 0.141 | 0.946 | 0.932 | 0.887 | 0.407 | 0.252 |
| NCI-H1651 | 0.781 | 0.709 | 0.833 | 0.784 | 0.796 | 0.656 | 0.56 | 0.603 | 0.633 | 0.588 | 0.84 | 0.788 | 0.643 | 0.35 | 0.303 | 1.11 | 0.79 | 0.69 | 0.461 | 0.422 |
| HARA | 0.636 | 0.501 | 0.651 | 0.802 | 0.681 | 0.267 | 0.399 | 0.287 | 0.228 | 0.264 | 0.652 | 0.67 | 0.761 | 0.421 | 0.318 | 1.15 | 0.78 | 0.809 | 0.594 | 0.206 |
| NCI-H1650 | 0.699 | 0.707 | 0.794 | 0.742 | 0.909 | 0.488 | 0.594 | 0.586 | 0.492 | 0.502 | 0.847 | 0.701 | 0.73 | 0.449 | 0.431 | – | – | – | – | – |
